Reference: patent publication US11357782B2, “Treprostinil administration by inhalation” (priority 2006, dated 2022)

How the values were obtained:
[1] = test system: patients with pre-existing gas exchange problems; experiment: Ventilation-perfusion matching by multiple inert gas elimination technique (MIGET); conditions: during NO-inhalation (20 ppm); mean±95% confidence interval; n=5
Experimental: The impact of SMI-TRE on ventilation-perfusion matching was assessed in five patients (30 μg TRE, n=2; 45 μg TRE, n=1; 60 μg TRE, n=2) with pre-existing gas exchange problems by use of the multiple inert gas elimination technique (MIGET), see e.g. Wagner PD, Saltzman HA, West JB. Measurement of continuous distributions of ventilation-perfusion ratios: theory. J Appl Physiol. 1974; 36:588-99; Ghofrani HA, Wiedemann R, Rose F, Schermuly RT, Olschewski H, Weissmann N et al. Sildenafil for treatment of lung fibrosis and pulmonary hypertension: a randomised controlled trial. Lancet. 2002; 360:895-900, both incorporated herein in their entirety.
The inhalation of a highly concentrated aerosol can be in theory prone to disturbances of gas exchange because the deposition of even small amounts of aerosol may deliver high doses locally and thereby antagonize the hypoxic pulmonary vasoconstriction in poorly ventilated areas. This would then lead to increased shunt flow or increase of low ventilation/perfusion (V/Q) areas. This question was addressed in five patients with the multiple inert gas elimination technique (MIGET), the gold-standard for intrapulmonary V/Q ratio determination. The MIGET patients were selected for pre-existing gas exchange limitations. […] Etiologies were iPAH (n=1), CTEPH (n=3), pulmonary fibrosis (n=1).

[2] = test system: patients with moderate to severe precapillary pulmonary hypertension; experiment: Study i) randomized crossover study of inhaled treprostinil vs inhaled iloprost, right heart catheter; format: in vivo, human
Experimental: All inhalations were performed with the […]® ultrasonic nebulizer ([…], Germany). Study i) was a randomized, open-label, single-blind crossover study. […] Patient characteristics and hemodynamic as well as gas exchange parameters are outlined in Table 3. Each patient inhaled both iloprost and treprostinil on the same day during right heart catheter investigation; the drugs were administered consecutively with a one hour interval between the drug applications. One half of the study patients initially inhaled treprostinil and then inhaled iloprost (n=22), while the other half initially inhaled iloprost and then inhaled treprostinil (n=22). Patients were randomized to one of the two groups and blinded as to the study drugs. Drug effects were monitored for 60 minutes after each inhalation.

| Compound | shunt flow [1] | area under the curve (AUC) of PVR decrease ([2]; 7.5 μg inhaled in 6 minutes, start of inhalation until 60 min, mean±95% confidence interval) | gas exchange ([2]; after inhalation) | systemic arterial pressure (SAP) ([2]; after inhalation) | side effects (transient flush, headache) ([2]; iloprost 7.5 μg, treprostinil 7.5-15 μg) | maximum effect on PVR ([2]; iloprost vs treprostinil, pooled) | time to maximum effect on PVR after inhalation ([2]; pooled n=44, mean±SEM, p<0.0001) |
| --- | --- | --- | --- | --- | --- | --- | --- |
| [N]=O [NO, nitric oxide] | 5.4±3.0% | – | – | – | – | – | – |
| CC#CCC(C)[C@H](O)/C=C/[C@@H]1[C@H]2C/C(=C/CCCC(=O)O)C[C@H]2C[C@H]1O (stereo partly shown) [iloprost] | – | 7.7±3.7% | did not affect gas exchange | transient decrease | occasionally observed mild side effects | comparable | 8 ± 1 min |
